From US6703385B1, “Tricyclic compounds having sPLA2-inhibitory activities” (Shionogi & Co., Ltd., priority 1999, dated 2004) come the findings set out here.

One data set addresses T1, type II sPLA2 (Homo sapiens, UniProt P14555).
T1 sequence (P14555 21-144): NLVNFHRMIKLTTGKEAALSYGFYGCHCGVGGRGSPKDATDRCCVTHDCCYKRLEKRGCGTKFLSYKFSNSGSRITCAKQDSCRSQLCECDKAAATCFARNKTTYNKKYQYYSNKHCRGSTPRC
Briefly: Inhibition test of human secretory phospholipase A2, chromogenic assay, type II enzyme. In kind it is biochemical. As to conditions: Inhibitory activity of type II sPLA2. An excerpt: In order to identify and evaluate an inhibitor of recombinant human secretory phospholipase A2, the following chromogenic assay is utilized. The assay herein has been applied for high volume screening wherein 96 well microtiterplate is used. A general explanation for such assay is described in “Analysis of Human Synovial Fluid Phospholipase A2 on Short Chain Phosphatidylcholine-Mixed Micelles: Development of a Spectrophotometric Assay Suitable for a Microtiterplate Reader” (Analytical Biochemistry, 204, pp 190-197, 1992 by Laure. J. Reynolds. Lori L. Hughes and Edward A. Dennis: the disclosure of which is incorporated herein for reference.
Type II enzyme: 1 mg of sPLA2 is dissolved in 1 ml of an enzyme buffer. Thereafter, the solution is maintained at 4° C. In the assay, 5 μl of the solution is diluted with 1995 μl of the reaction buffer to be used.
1) 0.106 ml of the substrate solution is put in a centrifugal tube, and nitrogen gas is jetted to remove the solvent. 0.54 ml of Triton-X 100 is added thereto, the mixture is stirred, thereafter it is sonified in a bath type sonification to dissolve. To the resulting product are added 17.8 ml of the reaction buffer and 0.46 ml of DTNB, and 0.18 ml each of the admixture is poured to wells of the 96 well microtiterplate.
2) 10 μl of a test compound (or solvent blank) are added in accordance with alignment of plates which has been previously set.
3) Incubation is effected at 40° C. for 15 minutes.
4) 90 ng/well in case of human type I enzyme, 50 ng/well in case of human type II enzyme, 40 μl/well in case of human type V enzyme, 15 μl/well in case of human type X enzyme were reacted.
5) Changes in absorbancy for 30 minutes for humane type I, type II, and type X enzyme and for 45 min for human type V enzyme, are measured by a plate reader, and inhibition activity was calculated (OD: 405 nm).
6) IC50 was determined by plotting log concentration with respect to inhibition values within 10% to 90% inhibiting range.

Each structure is given as a SMILES string.

Regarding `COC(=O)COc1cccn2c3c(c(C(=O)C(N)=O)c12)CCC=C3c1ccccc1` [Compound I-1], the melting point (commonly the temperature of the solid-liquid transition) is 225 to 227 °C (dec.). Further, the IC50 (in general, the concentration needed to halve the response being measured) on type II sPLA2 worked out at 789 nM. In the same order, the values of `NC(=O)C(=O)c1c2c(n3cccc(OCC(=O)O)c13)C(c1ccccc1)=CCC2` [Compound I-2] are 228 to 230 °C (dec.) and 45 nM. Compound `COC(=O)COc1cccn2c3c(c(C(=O)C(N)=O)c12)CCCC3c1ccccc1` (stereo not drawn) [Compound I-3] gave a melting point of 198 to 199 °C. On type II sPLA2, this compound yielded an IC50 of 1590 nM.

On type II sPLA2, `NC(=O)C(=O)c1c2c(n3cccc(OCC(=O)O)c13)C(c1ccccc1)CCC2` (stereo not drawn) [Compound I-4] registered an IC50 of 54 nM. For the compound `CC(=O)N1CCc2c(C(=O)C(N)=O)c3c(OCC(=O)O)cccn3c2C1c1ccccc1` (stereo not drawn) [Compound I-6], the IC50 against type II sPLA2 was 4570 nM.

`NC(=O)C(=O)c1c2c(n3cccc(OCC(=O)O)c13)C(c1ccccc1)N(C(=O)C(F)(F)F)CC2` (stereo not drawn) [Compound I-8] yielded an IC50 at type II sPLA2 of 262 nM. As to `COC(=O)COc1cccn2c1c(C(=O)C(N)=O)c1scc(-c3ccccc3)c12` [Compound I-11], on type II sPLA2, the half-maximal inhibitory concentration (IC50) turned out to be 5680 nM. For `NC(=O)C(=O)c1c2scc(-c3ccccc3)c2n2cccc(OCC(=O)O)c12` [Compound I-12], the 50% inhibitory concentration (IC50) on type II sPLA2 is 178 nM. On to `NC(=O)C(=O)c1c2c(n3ccnc(OCC(=O)O)c13)C(c1ccccc1)=CCC2` [Compound I-14], for which 34 nM corresponded to half-maximal inhibition against type II sPLA2 (IC50).
